Results on five molecules are retold here after ChEMBL document CHEMBL4765485, “Convenient Retinoid X Receptor Binding Assay Based on Fluorescence Change of the Antagonist NEt-C343” (J Med Chem, 2021).

In assay [1] the target is T1, Retinoic acid receptor RXR-alpha (Homo sapiens) (UniProt P19793).
T1 sequence (whole entry): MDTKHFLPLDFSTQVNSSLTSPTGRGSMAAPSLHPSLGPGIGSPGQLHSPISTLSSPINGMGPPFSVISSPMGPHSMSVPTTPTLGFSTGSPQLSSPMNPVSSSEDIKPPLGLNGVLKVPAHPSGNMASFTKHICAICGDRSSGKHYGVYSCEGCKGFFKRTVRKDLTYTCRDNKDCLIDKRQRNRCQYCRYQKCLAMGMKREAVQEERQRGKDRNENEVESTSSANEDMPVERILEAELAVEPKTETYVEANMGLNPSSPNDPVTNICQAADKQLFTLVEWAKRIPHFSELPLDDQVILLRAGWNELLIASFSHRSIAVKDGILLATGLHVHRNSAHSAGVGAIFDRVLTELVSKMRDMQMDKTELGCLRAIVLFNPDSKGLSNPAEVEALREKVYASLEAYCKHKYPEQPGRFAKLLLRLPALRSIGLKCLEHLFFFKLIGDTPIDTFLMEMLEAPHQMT
The assay is described as follows: Displacement of 6-(Ethyl-{5-isobutoxy-4-isopropyl-2-[(10-oxo-2,3,5,6-tetrahydro-1H,4H,10H-11-oxa-3a-aza-benzo[de]anthracene-9-carbonyl)-amino]-phenyl}-amino)-nicotinic acid from human RXRalpha-LBD by fluorescence binding assay.

Assay [2] concerns the target T2, Retinoic acid receptor RXR-alpha (Homo sapiens, UniProt P19793).
T2 sequence (P19793 whole entry): T1 sequence (whole entry)
Description: Antagonist activity at human RXRalpha expressed in COS-7 cells assessed as suppression of NEt-TMN-induced receptor transactivation by luciferase reporter gene assay. It counts as cell-based. Particulars: read-out: pA2 (converted). For orientation: In a reporter assay the amount or activity of a reporter protein is the signal.

Assay [3] concerns the target T2, Retinoic acid receptor RXR-alpha. Description: Displacement of [3H]9cis-RA from human RXRalpha-LBD by competitive binding assay.

Molecules are shown by their SMILES. pKi: −log10 of the molar value. Active and inactive are the calls of the source. No cut-off for these calls is given here.

On to `CC/C=C\C/C=C\C/C=C\C/C=C\C/C=C\CCCC(=O)O`, for which, in assay [1], the outcome was Active.
As for `C=CCc1ccc(O)c(-c2ccc(O)c(CC=C)c2)c1`, the outcome in assay [1] was Active.
Consider `CC/C=C\C/C=C\C/C=C\C/C=C\C/C=C\C/C=C\CCC(=O)O`, for which, in assay [1], the result was Active.
Regarding `CCN(c1ccc(C(=O)O)cn1)c1cc(OCC(C)C)c(C(C)C)cc1NC(=O)c1ccccc1`, in assay [2], the Kb is 47.9 nM. The negative logarithm of the Ki (pKi) (in general, the negative decadic logarithm of the Ki, by convention in mol/L) in assay [3] was 6.37.
As to `CCCCC/C=C\C/C=C\C/C=C\C/C=C\CCCC(=O)O`, the outcome in assay [1] was Active.
